Experiments:
Type in all cases: in vivo
Stellaria media [1] = test: Pre-emergence herbicide efficacy at 320 g/ha, STEME; settings: scored visually after about 3 weeks vs untreated controls, 100% = plants have died
Procedure, shortened: (§1)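 Seeds were sown in sandy loam and covered with soil; WP or EC formulations were then sprayed onto the soil surface at 320 g/ha in 600 L/ha water with 0.5% additive. After about 3 weeks in the greenhouse, efficacy was scored visually as % versus untreated controls (100% = plants dead, 0% = like control).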

Kochia scoparia [2] = test: Pre-emergence herbicide efficacy at 320 g/ha, KCHSC; settings: scored visually after about 3 weeks vs untreated controls, 100% = plants have died
Procedure, shortened: as §1

Amaranthus retroflexus [3] = test: Pre-emergence herbicide efficacy at 80 g/ha, AMARE; settings: scored visually after about 3 weeks vs untreated controls, 100% = plants have died
Procedure, shortened: (§2)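 Pre-emergence test: pots sown with weed seeds, then compound (WP or EC) sprayed on the covering soil as aqueous suspension/emulsion with 0.5% additive at 600 l/ha water, here 80 g/ha. Greenhouse growth for about 3 weeks. Efficacy scored visually versus untreated controls, 0% (as control) to 100% (plants died).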

Viola tricolor [4] = test: Pre-emergence herbicide efficacy at 80 g/ha, VIOTR
Procedure, shortened: as §2

Kochia scoparia [5] = test: Post-emergence herbicidal efficacy at 80 g/ha, KCHSC; settings: rated visually after about 3 weeks vs untreated controls, 100% = plants have died
Procedure, shortened: (§3)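 Weeds grown in sandy loam under greenhouse conditions and sprayed post-emergence at the one-leaf stage (2–3 weeks after sowing) with WP or EC formulations plus 0.5% additive, 600 l/ha water. Activity scored visually about 3 weeks later versus untreated controls (0% = like control, 100% = plants dead).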

Matricaria inodora = test: Pre-emergence herbicide efficacy at 320 g/ha, MATIN; settings: scored visually after about 3 weeks vs untreated controls, 100% = plants have died
Description: (§4) Unwanted plants/weeds: • ABUTH: Abutilon theophrasti • ALOMY: Alopecurus myosuroides • AMARE: Amaranthus retroflexus • DIGSA: Digitaria sanguinalis • ECHCG: Echinochloa crus-galli • KCHSC: Kochia scoparia • LOLRI: Lolium rigidum • MATIN: Matricaria inodora • POAAN: Poa annua • POLCO: Polygonum convolvulus • SETVI: Setaria viridis • STEME: Stellaria media • VERPE: Veronica persica • VIOTR: Viola tricolor A. Post-Emergence Herbicidal Efficacy at 320 g/ha
(§5) Seeds of mono- and dicotyledonous weed plants were placed in plastic pots in sandy loam soil (doubly sown with one species each of mono- or dicotyledonous weed plants per pot) and covered with soil. The compounds of the invention, formulated in the form of wettable powders (WP) or as emulsion concentrates (EC), were then applied to the surface of the covering soil as aqueous suspension or emulsion with addition of 0.5% additive at a water application rate of 600 litres per hectare (converted). After the treatment, the pots were placed in a greenhouse and kept under good growth conditions for the test plants. After about 3 weeks, the efficacy of the preparations was scored visually in comparison with untreated controls as percentages.
(§6) For example, 100% activity=the plants have died, 0% activity=like control plants.
(§7) Tables C1 to C12 below show the effects of selected compounds of the general formula (I) according to Table 1 on various harmful plants and at an application rate corresponding to 320 g/ha, which were obtained by the trial procedure specified above.

Veronica persica [6] = test: Pre-emergence herbicide efficacy at 80 g/ha, VERPE
Description: as §4
(§8) Seeds of monocotyledonous and dicotyledonous weed plants and crop plants were placed in plastic or organic planting pots and covered with soil. The compounds of the invention, formulated in the form of wettable powders (WP) or as emulsion concentrates (EC), were then applied to the surface of the covering soil as aqueous suspension or emulsion with addition of 0.5% additive at a water application rate equivalent to 600 l/ha. After the treatment, the pots were placed in a greenhouse and kept under good growth conditions for the test plants. After about 3 weeks, the efficacy of the preparations was scored visually in comparison with untreated controls as percentages. For example, 100% activity=the plants have died, 0% activity=like control plants.
(§9) Tables D1 to D12 below show the effects of selected compounds of the general formula (I) according to Table 1 on various harmful plants and an application rate corresponding to 80 g/ha, which were obtained by the experimental procedure mentioned above.

Abutilon theophrasti [7] = test: Pre-emergence herbicide efficacy at 320 g/ha, ABUTH; settings: scored visually after about 3 weeks vs untreated controls, 100% = plants have died
Procedure, shortened: as §1

Stellaria media [8] = test: Post-emergence herbicidal efficacy at 320 g/ha, STEME; settings: rated visually after about 3 weeks vs untreated controls, 100% = plants have died
Procedure, shortened: (§10)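 Weeds grown from seed in sandy loam in the greenhouse were sprayed at the one-leaf stage, 2 to 3 weeks after sowing. WP or EC formulations were applied as aqueous spray with 0.5% additive at 600 L/ha. Injury was scored visually about 3 weeks later against untreated controls (0% = like control, 100% = dead).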

Amaranthus retroflexus [9] = test: Post-emergence herbicidal efficacy at 320 g/ha, AMARE; settings: rated visually after about 3 weeks vs untreated controls, 100% = plants have died
Procedure, shortened: as §10

Poa annua [10] = test: Post-emergence herbicidal efficacy at 320 g/ha, POAAN; settings: rated visually after about 3 weeks vs untreated controls, 100% = plants have died
Procedure, shortened: as §10

Digitaria sanguinalis [11] = test: Post-emergence herbicidal efficacy at 320 g/ha, DIGSA; settings: rated visually after about 3 weeks vs untreated controls, 100% = plants have died
Procedure, shortened: as §10

Digitaria sanguinalis [12] = test: Pre-emergence herbicide efficacy at 80 g/ha, DIGSA; settings: scored visually after about 3 weeks vs untreated controls, 100% = plants have died
Description: as §4, §8, §9

Veronica persica [13] = test: Post-emergence herbicidal efficacy at 80 g/ha, VERPE; settings: rated visually after about 3 weeks vs untreated controls, 100% = plants have died
Procedure, shortened: as §3

Amaranthus retroflexus [14] = test: Post-emergence herbicidal efficacy at 80 g/ha, AMARE; settings: rated visually after about 3 weeks vs untreated controls, 100% = plants have died
Procedure, shortened: as §3

Setaria viridis [15] = test: Pre-emergence herbicide efficacy at 320 g/ha, SETVI; settings: scored visually after about 3 weeks vs untreated controls, 100% = plants have died
Procedure, shortened: as §1

Setaria viridis [16] = test: Post-emergence herbicidal efficacy at 320 g/ha, SETVI; settings: rated visually after about 3 weeks vs untreated controls, 100% = plants have died
Description: as §4
Seeds of mono- and dicotyledonous weed plants were placed in plastic pots in sandy loam soil (doubly sown with in each case one species of mono- or dicotyledonous weed plants per pot), covered with soil and cultivated in a greenhouse under controlled growth conditions. 2 to 3 weeks after sowing, the test plants were treated at the one-leaf stage. The compounds of the invention, formulated in the form of wettable powders (WP) or as emulsion concentrates (EC), were applied to the green parts of the plants as aqueous suspension or emulsion with addition of 0.5% additive at a water application rate equivalent to 600 litres per hectare. After the test plants had been kept in the greenhouse under optimum growth conditions for about 3 weeks, the activity of the preparations was rated visually in comparison to untreated controls.
as §6
Tables A1 to A10 below show the effects of selected compounds of the general formula (I) according to Table 1 on various harmful plants and at an application rate corresponding to 320 g/ha, which were obtained by the trial procedure specified above.

Veronica persica [17] = test: Post-emergence herbicidal efficacy at 320 g/ha, VERPE; settings: rated visually after about 3 weeks vs untreated controls, 100% = plants have died
Procedure, shortened: as §10

Veronica persica [18] = test: Pre-emergence herbicide efficacy at 320 g/ha, VERPE; settings: scored visually after about 3 weeks vs untreated controls, 100% = plants have died
Procedure, shortened: as §1

Echinochloa crus-galli [19] = test: Pre-emergence herbicide efficacy at 320 g/ha, ECHCG; settings: scored visually after about 3 weeks vs untreated controls, 100% = plants have died
Procedure, shortened: as §1

Echinochloa crus-galli [20] = test: Post-emergence herbicidal efficacy at 320 g/ha, ECHCG; settings: rated visually after about 3 weeks vs untreated controls, 100% = plants have died
Procedure, shortened: as §10

Amaranthus retroflexus [21] = test: Pre-emergence herbicide efficacy at 320 g/ha, AMARE; settings: scored visually after about 3 weeks vs untreated controls, 100% = plants have died
Procedure, shortened: as §1

Kochia scoparia [22] = test: Pre-emergence herbicide efficacy at 80 g/ha, KCHSC; settings: scored visually after about 3 weeks vs untreated controls, 100% = plants have died
Description: as §4, §8, §9

Polygonum convolvulus = test: Pre-emergence herbicide efficacy at 80 g/ha, POLCO; settings: scored visually after about 3 weeks vs untreated controls, 100% = plants have died
Description: as §4, §8, §9

Poa annua [23] = test: Pre-emergence herbicide efficacy at 320 g/ha, POAAN; settings: scored visually after about 3 weeks vs untreated controls, 100% = plants have died
Procedure, shortened: as §1

Kochia scoparia [24] = test: Post-emergence herbicidal efficacy at 320 g/ha, KCHSC; settings: rated visually after about 3 weeks vs untreated controls, 100% = plants have died
Procedure, shortened: as §10

Lolium rigidum = test: Pre-emergence herbicide efficacy at 320 g/ha, LOLRI; settings: scored visually after about 3 weeks vs untreated controls, 100% = plants have died
Description: as §4, §5, §6, §7

Viola tricolor [25] = test: Post-emergence herbicidal efficacy at 80 g/ha, VIOTR; settings: rated visually after about 3 weeks vs untreated controls, 100% = plants have died
Description: as §4
Seeds of monocotyledonous and dicotyledonous weeds and crop plants were placed in sandy loam in plastic or organic planting pots, covered with soil and cultivated in a greenhouse under controlled growth conditions. 2 to 3 weeks after sowing, the test plants were treated at the one-leaf stage. The compounds of the invention, formulated in the form of wettable powders (WP) or as emulsion concentrates (EC), were then sprayed onto the green parts of the plants as aqueous suspension or emulsion with addition of 0.5% additive at a water application rate of 600 l/ha (converted). After the test plants had been kept in the greenhouse under optimum growth conditions for about 3 weeks, the activity of the preparations was rated visually in comparison to untreated controls. For example, 100% activity=the plants have died, 0% activity=like control plants.
Tables B1 to B11 below show the effects of selected compounds of the general formula (I) according to Table 1 on various harmful plants and an application rate corresponding to 80 g/ha, which were obtained by the experimental procedure mentioned above.

Abutilon theophrasti [26] = test: Post-emergence herbicidal efficacy at 320 g/ha, ABUTH; settings: rated visually after about 3 weeks vs untreated controls, 100% = plants have died
Procedure, shortened: as §10

Setaria viridis [27] = test: Pre-emergence herbicide efficacy at 80 g/ha, SETVI
Procedure, shortened: as §2

Digitaria sanguinalis [28] = test: Pre-emergence herbicide efficacy at 320 g/ha, DIGSA; settings: scored visually after about 3 weeks vs untreated controls, 100% = plants have died
Procedure, shortened: as §1

N#Cc1cccc(Nc2ncc(Cl)cn2)c1-n1cc(C(F)(F)F)cn1 [Example 1-38, 3-(5-Chloropyrimidin-2-ylamino)-2-(4-(trifluoromethyl)-1H-pyrazol-1-yl)benzonitrile]
Pre-emergence efficacy at 320 g/ha against STEME in % (Stellaria media [1]): 100% | Pre-emergence efficacy at 320 g/ha against KCHSC in % (Kochia scoparia [2]): 90% | Pre-emergence efficacy at 80 g/ha against AMARE in % (Amaranthus retroflexus [3]): 100% | Pre-emergence efficacy against VIOTR (Viola tricolor [4]): 100% | Post-emergence efficacy at 80 g/ha against KCHSC in % (Kochia scoparia [5]): 100% | Pre-emergence efficacy at 320 g/ha against MATIN in % (Matricaria inodora): 100% | Pre-emergence efficacy against VERPE (Veronica persica [6]): 90% | Pre-emergence efficacy at 320 g/ha against ABUTH in % (Abutilon theophrasti [7]): 90% | Post-emergence efficacy at 320 g/ha against STEME in % (Stellaria media [8]): 100% | Post-emergence efficacy at 320 g/ha against AMARE in % (Amaranthus retroflexus [9]): 100% | Post-emergence efficacy at 320 g/ha against POAAN in % (Poa annua [10]): 90% | Post-emergence efficacy at 320 g/ha against DIGSA in % (Digitaria sanguinalis [11]): 90% | Pre-emergence efficacy at 80 g/ha against DIGSA in % (Digitaria sanguinalis [12]): 100% | Post-emergence efficacy at 80 g/ha against VERPE in % (Veronica persica [13]): 90% | Post-emergence efficacy at 80 g/ha against AMARE in % (Amaranthus retroflexus [14]): 100% | Pre-emergence efficacy at 320 g/ha against SETVI in % (Setaria viridis [15]): 100% | Post-emergence efficacy at 320 g/ha against SETVI in % (Setaria viridis [16]): 90% | Post-emergence efficacy at 320 g/ha against VERPE in % (Veronica persica [17]): 100% | Pre-emergence efficacy at 320 g/ha against VERPE in % (Veronica persica [18]): 100% | Pre-emergence efficacy at 320 g/ha against ECHCG in % (Echinochloa crus-galli [19]): 90% | Post-emergence efficacy at 320 g/ha against ECHCG in % (Echinochloa crus-galli [20]): 100% | Pre-emergence efficacy at 320 g/ha against AMARE in % (Amaranthus retroflexus [21]): 100% | Pre-emergence efficacy at 80 g/ha against KCHSC in % (Kochia scoparia [22]): 100% | Pre-emergence efficacy at 80 g/ha against POLCO in % (Polygonum convolvulus): 100% | Pre-emergence efficacy at 320 g/ha against POAAN in % (Poa annua [23]): 100% | Post-emergence efficacy at 320 g/ha against KCHSC in % (Kochia scoparia [24]): 100% | Pre-emergence efficacy at 320 g/ha against LOLRI in % (Lolium rigidum): 90% | Post-emergence efficacy at 80 g/ha against VIOTR in % (Viola tricolor [25]): 100% | Post-emergence efficacy at 320 g/ha against ABUTH in % (Abutilon theophrasti [26]): 90% | Pre-emergence efficacy against SETVI (Setaria viridis [27]): 100% | Pre-emergence efficacy at 320 g/ha against DIGSA in % (Digitaria sanguinalis [28]): 100%

— patent US20250311727A1, “SUBSTITUTED 2-AMINOAZINES AND SALTS THEREOF, AND USE THEREOF AS HERBICIDAL ACTIVE SUBSTANCES” (BAYER AKTIENGESELLSCHAFT, priority 2022, published 2025)
